Measurements: article PMC10327353 (Breast Cancer Research : BCR, 2023)

Test: Phase 1 study: safety and tolerability
Assay type: in vivo
Experimental: The maximum tolerated dose (MTD) of DZD1516 was defined based on safety data and the Bayesian optimal interval (BOIN) design (Additional file 1). The definition of DLT is provided in Additional file 1.
The AE grading was assessed according to the NCI-Common Terminology Criteria for Adverse Events (CTCAE) (version 5.0) and was monitored until 28 days after the last dose.
Eligible patients received single oral dosing of DZD1516 on Cycle 0 Day 1 (C0D1), followed by a 7-day washout. Twice daily oral dosing (bid) of DZD1516 was commenced from C1D1 in a continuous 21-day cycle until disease progression, unacceptable toxicity, or withdrawal of consent. All doses were taken under fed conditions (within 30 minutes after a meal).
Planned dosing consisted of 25, 50, 100, 200, 300, and 400 mg. Each dose escalation cohort will comprise a minimum of three and a maximum of six evaluable patients (except only one patient in the starting dose cohort). The maximum tolerated dose of DZD1516 was defined according to safety data and the Bayesian optimal interval (BOIN) design. Dose escalation/de-escalation rule with target toxicity rate for the MTD is 0.30 with interval of (0.20, 0.33).
DLTs were any adverse event (AE) not clearly attributable to the patient’s disease, including ≥ grade 4 hematological toxicities present for ≥ 4 days, grade 3 thrombocytopenia with bleeding, or grade 4 thrombocytopenia lasting for > 5 days, ≥ grade 3 non-hematological toxicities that is dose-limiting in the judgment of the investigators. Any other toxicity that is greater than that at baseline, is clinically significant or unacceptable, and is judged to be a DLT by the SRC. Exceptions included alopecia of any grade and isolated grade 3 laboratory change without clinical sequelae or clinical significance.
Safety evaluations were conducted at screening, on Day 1, 8, and 15 of Cycle 1, on Day 1 of each subsequent treatment cycle, at the end-of-treatment visit, and clinically indicated. Safety assessments included clinical laboratory measurements (hematology, chemistry, coagulation, and urinalysis), electrocardiogram (ECG), Echocardiogram/MUGA scan, ECOG performance status, vital signs, and physical examinations.

## COc1cc(O[C@H]2CCN(C)CC2(F)F)c2c(Nc3ccc(Oc4ccn5ncnc5c4)c(C)c3)ncnc2c1 [DZD1516]
25 mg (N = 1)
  Alanine aminotransferase increased, Any Grade: 0 (0.0) n (%)
  Alanine aminotransferase increased, ≥ Grade 3: 0 (0.0) n (%)
  Anemia, Any Grade: 0 (0.0) n (%)
  Anemia, ≥ Grade 3: 0 (0.0) n (%)
  Any TEAE: Grade 3: 0 (0.0) n (%)
  Any TEAE: Leading to death: 0 (0.0) n (%)
  Any TEAE: Leading to dose reduction: 0 (0.0) n (%)
  Any TEAE: Leading to treatment discontinuation: 0 (0.0) n (%)
  Any TEAE: Leading to treatment interruption: 0 (0.0) n (%)
  Any TEAE: SAE: 0 (0.0) n (%)
  Aspartate aminotransferase increased, Any Grade: 0 (0.0) n (%)
  Aspartate aminotransferase increased, ≥ Grade 3: 0 (0.0) n (%)
  Blood and lymphatic system disorders, Any Grade: 0 (0.0) n (%)
  Blood and lymphatic system disorders, ≥ Grade 3: 0 (0.0) n (%)
  Blood bilirubin increased, Any Grade: 1 (100.0) n (%)
  Blood bilirubin increased, ≥ Grade 3: 0 (0.0) n (%)
  Cardiac disorders, Any Grade: 0 (0.0) n (%)
  Cardiac disorders, ≥ Grade 3: 0 (0.0) n (%)
  Constipation, Any Grade: 0 (0.0) n (%)
  Constipation, ≥ Grade 3: 0 (0.0) n (%)
  Decreased appetite, Any Grade: 0 (0.0) n (%)
  Decreased appetite, ≥ Grade 3: 0 (0.0) n (%)
  Dizziness, Any Grade: 0 (0.0) n (%)
  Dizziness, ≥ Grade 3: 0 (0.0) n (%)
  Drug-related TEAE: Grade 3: 0 (0.0) n (%)
  Drug-related TEAE: Leading to death: 0 (0.0) n (%)
  Drug-related TEAE: Leading to dose reduction: 0 (0.0) n (%)
  Drug-related TEAE: Leading to treatment discontinuation: 0 (0.0) n (%)
  Drug-related TEAE: Leading to treatment interruption: 0 (0.0) n (%)
  Drug-related TEAE: SAE: 0 (0.0) n (%)
  Fatigue, Any Grade: 0 (0.0) n (%)
  Fatigue, ≥ Grade 3: 0 (0.0) n (%)
  Gastrointestinal disorders, Any Grade: 0 (0.0) n (%)
  Gastrointestinal disorders, ≥ Grade 3: 0 (0.0) n (%)
  General disorders and administration site conditions, Any Grade: 0 (0.0) n (%)
  General disorders and administration site conditions, ≥ Grade 3: 0 (0.0) n (%)
  Headache, Any Grade: 0 (0.0) n (%)
  Headache, ≥ Grade 3: 0 (0.0) n (%)
  Hemoglobin decreased, Any Grade: 0 (0.0) n (%)
  Hemoglobin decreased, ≥ Grade 3: 0 (0.0) n (%)
  Investigations, Any Grade: 1 (100.0) n (%)
  Investigations, ≥ Grade 3: 0 (0.0) n (%)
  Lipase increased, Any Grade: 0 (0.0) n (%)
  Lipase increased, ≥ Grade 3: 0 (0.0) n (%)
  Malaise, Any Grade: 0 (0.0) n (%)
  Malaise, ≥ Grade 3: 0 (0.0) n (%)
  Metabolism and nutrition disorders, Any Grade: 0 (0.0) n (%)
  Metabolism and nutrition disorders, ≥ Grade 3: 0 (0.0) n (%)
  Musculoskeletal and connective tissue disorders, Any Grade: 0 (0.0) n (%)
  Musculoskeletal and connective tissue disorders, ≥ Grade 3: 0 (0.0) n (%)
  Nausea, Any Grade: 0 (0.0) n (%)
  Nausea, ≥ Grade 3: 0 (0.0) n (%)
  Nervous system disorders, Any Grade: 0 (0.0) n (%)
  Nervous system disorders, ≥ Grade 3: 0 (0.0) n (%)
  Participants with any TEAE, Any Grade: 1 (100.0) n (%)
  Participants with any TEAE, ≥ Grade 3: 0 (0.0) n (%)
  Platelet count decreased, Any Grade: 0 (0.0) n (%)
  Platelet count decreased, ≥ Grade 3: 0 (0.0) n (%)
  Proteinuria, Any Grade: 0 (0.0) n (%)
  Proteinuria, ≥ Grade 3: 0 (0.0) n (%)
  Renal and urinary disorders, Any Grade: 0 (0.0) n (%)
  Renal and urinary disorders, ≥ Grade 3: 0 (0.0) n (%)
  Subjects with any TEAE: 1 (100.0) n (%)
  Subjects with any drug-related TEAE: 1 (100.0) n (%)
  Vomiting, Any Grade: 0 (0.0) n (%)
  Vomiting, ≥ Grade 3: 0 (0.0) n (%)
  White blood cell count decreased, Any Grade: 0 (0.0) n (%)
  White blood cell count decreased, ≥ Grade 3: 0 (0.0) n (%)
50 mg (N = 4)
  Alanine aminotransferase increased, Any Grade: 1 (25.0) n (%)
  Alanine aminotransferase increased, ≥ Grade 3: 0 (0.0) n (%)
  Anemia, Any Grade: 0 (0.0) n (%)
  Anemia, ≥ Grade 3: 0 (0.0) n (%)
  Any TEAE: Grade 3: 0 (0.0) n (%)
  Any TEAE: Leading to death: 0 (0.0) n (%)
  Any TEAE: Leading to dose reduction: 0 (0.0) n (%)
  Any TEAE: Leading to treatment discontinuation: 0 (0.0) n (%)
  Any TEAE: Leading to treatment interruption: 0 (0.0) n (%)
  Any TEAE: SAE: 0 (0.0) n (%)
  Aspartate aminotransferase increased, Any Grade: 1 (25.0) n (%)
  Aspartate aminotransferase increased, ≥ Grade 3: 0 (0.0) n (%)
  Blood and lymphatic system disorders, Any Grade: 0 (0.0) n (%)
  Blood and lymphatic system disorders, ≥ Grade 3: 0 (0.0) n (%)
  Blood bilirubin increased, Any Grade: 0 (0.0) n (%)
  Blood bilirubin increased, ≥ Grade 3: 0 (0.0) n (%)
  Cardiac disorders, Any Grade: 0 (0.0) n (%)
  Cardiac disorders, ≥ Grade 3: 0 (0.0) n (%)
  Constipation, Any Grade: 0 (0.0) n (%)
  Constipation, ≥ Grade 3: 0 (0.0) n (%)
  Decreased appetite, Any Grade: 0 (0.0) n (%)
  Decreased appetite, ≥ Grade 3: 0 (0.0) n (%)
  Dizziness, Any Grade: 0 (0.0) n (%)
  Dizziness, ≥ Grade 3: 0 (0.0) n (%)
  Drug-related TEAE: Grade 3: 0 (0.0) n (%)
  Drug-related TEAE: Leading to death: 0 (0.0) n (%)
  Drug-related TEAE: Leading to dose reduction: 0 (0.0) n (%)
  Drug-related TEAE: Leading to treatment discontinuation: 0 (0.0) n (%)
  Drug-related TEAE: Leading to treatment interruption: 0 (0.0) n (%)
  Drug-related TEAE: SAE: 0 (0.0) n (%)
  Fatigue, Any Grade: 0 (0.0) n (%)
  Fatigue, ≥ Grade 3: 0 (0.0) n (%)
  Gastrointestinal disorders, Any Grade: 0 (0.0) n (%)
  Gastrointestinal disorders, ≥ Grade 3: 0 (0.0) n (%)
  General disorders and administration site conditions, Any Grade: 0 (0.0) n (%)
  General disorders and administration site conditions, ≥ Grade 3: 0 (0.0) n (%)
  Headache, Any Grade: 1 (25.0) n (%)
  Headache, ≥ Grade 3: 0 (0.0) n (%)
  Hemoglobin decreased, Any Grade: 2 (50.0) n (%)
  Hemoglobin decreased, ≥ Grade 3: 0 (0.0) n (%)
  Investigations, Any Grade: 3 (75.0) n (%)
  Investigations, ≥ Grade 3: 0 (0.0) n (%)
  Lipase increased, Any Grade: 2 (50.0) n (%)
  Lipase increased, ≥ Grade 3: 0 (0.0) n (%)
  Malaise, Any Grade: 0 (0.0) n (%)
  Malaise, ≥ Grade 3: 0 (0.0) n (%)
  Metabolism and nutrition disorders, Any Grade: 1 (25.0) n (%)
  Metabolism and nutrition disorders, ≥ Grade 3: 0 (0.0) n (%)
  Musculoskeletal and connective tissue disorders, Any Grade: 1 (25.0) n (%)
  Musculoskeletal and connective tissue disorders, ≥ Grade 3: 0 (0.0) n (%)
  Nausea, Any Grade: 0 (0.0) n (%)
  Nausea, ≥ Grade 3: 0 (0.0) n (%)
